In PubChem BioAssay (NCI):
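Growth conditions: 96-well plates. Treatment: test compound, 48 hours, 5 concentrations. Analysis: linear interpolation between bracketing concentrations; unreached endpoints set to highest concentration. TGI: total growth inhibition.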

Columns and labels:
Test in all cases: DTP human tumour cell line panel, 48 h
HCT-116 colon = tested on: HCT-116 colon
786-0 renal = tested on: 786-0 renal
NCI-H226 lung = tested on: NCI-H226 lung
MOLT-4 leukemia = tested on: MOLT-4 leukemia
CAKI-1 renal = tested on: CAKI-1 renal
DU-145 prostate = tested on: DU-145 prostate

COc1ccc(N2C(=O)C3c4[nH]c5ccccc5c4C4CCC(C(C)C)CC4C3C2=O)cc1 (stereo not given)
TGI (HCT-116 colon): > 100 µM
TGI (786-0 renal): > 100 µM
TGI (NCI-H226 lung): > 100 µM
TGI (MOLT-4 leukemia): > 100 µM
TGI (CAKI-1 renal): > 100 µM
TGI (DU-145 prostate): > 100 µM

c1ccc(C(CCN2CCCC2)c2ccccn2)cc1 (stereo not given)
TGI (HCT-116 colon): > 100 µM
TGI (786-0 renal): > 100 µM
TGI (NCI-H226 lung): > 100 µM
TGI (CAKI-1 renal): > 100 µM
TGI (DU-145 prostate): > 100 µM

CCN(CC)C(=S)SNCCc1ccc(S(N)(=O)=O)cc1
TGI (HCT-116 colon): 26.4 µM
TGI (786-0 renal): 27.8 µM
TGI (NCI-H226 lung): > 84.7 µM
TGI (CAKI-1 renal): 29 µM
TGI (DU-145 prostate): 33.8 µM

CC(NC(=O)C(C)C(=O)NCc1ccc(C(F)(F)F)cc1)C(N)=O (stereo not given)
TGI (HCT-116 colon): > 100 µM
TGI (786-0 renal): > 100 µM
TGI (NCI-H226 lung): > 100 µM
TGI (MOLT-4 leukemia): > 100 µM
TGI (CAKI-1 renal): > 100 µM
TGI (DU-145 prostate): > 100 µM

CC(C)OC(=O)c1ccc(CCC2=CC(=O)C(Br)=CC2=O)cc1
TGI (HCT-116 colon): 30.6 µM
TGI (786-0 renal): 30.2 µM
TGI (NCI-H226 lung): 71.9 µM
TGI (MOLT-4 leukemia): 14 µM
TGI (CAKI-1 renal): 38.4 µM
TGI (DU-145 prostate): 63.3 µM

CC1CCC2c3c([nH]c4ccccc34)C3C(=O)N(C4CCCCC4)C(=O)C3C2C1 (stereo not given)
TGI (HCT-116 colon): 24.2 µM
TGI (786-0 renal): 19.6 µM
TGI (NCI-H226 lung): 36 µM
TGI (CAKI-1 renal): 30.8 µM
TGI (DU-145 prostate): > 100 µM

C/C=C/C=C/C1=NN(c2cccc(S(=O)(=O)O)c2)C2(C1)SCC(=O)N2c1nc2ccccc2s1 (stereo not given)
TGI (HCT-116 colon): > 100 µM
TGI (786-0 renal): 42.3 µM
TGI (NCI-H226 lung): > 100 µM
TGI (MOLT-4 leukemia): > 100 µM
TGI (CAKI-1 renal): > 100 µM
TGI (DU-145 prostate): > 100 µM

Cc1ccccc1NC(=S)N/N=C(/c1ccccc1)c1ccccn1
TGI (HCT-116 colon): 17.2 µM
TGI (786-0 renal): 10.8 µM
TGI (NCI-H226 lung): 1.66 µM
TGI (MOLT-4 leukemia): 3.98 µM
TGI (CAKI-1 renal): 10.5 µM
TGI (DU-145 prostate): 18.3 µM

C=C1C(=O)[C@]23[C@H](O)[C@H]1CC[C@H]2[C@@]12CO[C@@]3(O)C[C@@H]1C(C)(C)CC[C@@H]2O
TGI (HCT-116 colon): 16.2 µM
TGI (786-0 renal): > 25 µM
TGI (NCI-H226 lung): > 25 µM
TGI (MOLT-4 leukemia): > 25 µM
TGI (CAKI-1 renal): > 25 µM
TGI (DU-145 prostate): > 25 µM

COC(=O)C1=C(OC(=O)/C(=C/c2ccc(Cl)cc2)c2ccccc2)C(C(=O)OC)[C@@]2(O)[C@@H](C(=O)OC)[C@H](C)C[C@@H]1[C@@H]2C(=O)OC (stereo not given in full)
TGI (HCT-116 colon): > 100 µM
TGI (786-0 renal): > 100 µM
TGI (NCI-H226 lung): > 100 µM
TGI (MOLT-4 leukemia): > 100 µM
TGI (CAKI-1 renal): > 100 µM
TGI (DU-145 prostate): > 100 µM

O=C(Nc1ccc2ccccc2c1)Nn1cnnc1
TGI (HCT-116 colon): > 100 µM
TGI (786-0 renal): > 100 µM
TGI (NCI-H226 lung): > 100 µM
TGI (MOLT-4 leukemia): > 100 µM
TGI (CAKI-1 renal): > 100 µM
TGI (DU-145 prostate): > 100 µM

O=C([C@H](O)[C@@H](O)c1ccc(Br)cc1)C12CC3CC(CC(C3)C1)C2
TGI (HCT-116 colon): > 51.9 µM
TGI (786-0 renal): 45.9 µM
TGI (NCI-H226 lung): > 85.7 µM
TGI (MOLT-4 leukemia): > 100 µM
TGI (CAKI-1 renal): 59.2 µM
TGI (DU-145 prostate): 51.8 µM

O=c1[nH]c(=O)n(C2CC(O)C(CO)O2)cc1NN=NCc1ccccc1 (stereo not given)
TGI (HCT-116 colon): > 100 µM
TGI (786-0 renal): > 100 µM
TGI (NCI-H226 lung): > 100 µM
TGI (MOLT-4 leukemia): > 100 µM
TGI (CAKI-1 renal): > 100 µM
TGI (DU-145 prostate): > 100 µM

O=C(/C=C/c1cccs1)c1ccsc1
TGI (786-0 renal): > 100 µM
TGI (NCI-H226 lung): 48.5 µM
TGI (MOLT-4 leukemia): 40.6 µM
TGI (CAKI-1 renal): > 100 µM
TGI (DU-145 prostate): > 100 µM

O=C1c2ccccc2C2(c3ccc(Cl)cc3)NCc3ccccc3CN12 (stereo not given)
TGI (HCT-116 colon): 22.6 µM
TGI (786-0 renal): 26.4 µM
TGI (MOLT-4 leukemia): 91.7 µM
TGI (CAKI-1 renal): > 100 µM
TGI (DU-145 prostate): 50.3 µM

O=C(c1ccc(Cl)cc1)N1N=C(c2ccc(Cl)cc2)CC1(O)c1cc(F)c(Cl)cc1Cl (stereo not given)
TGI (HCT-116 colon): 26.4 µM
TGI (786-0 renal): > 100 µM
TGI (NCI-H226 lung): > 100 µM
TGI (MOLT-4 leukemia): > 100 µM
TGI (CAKI-1 renal): 39.6 µM
TGI (DU-145 prostate): > 100 µM

CC(=O)OCC1OC(OCC2OC(N3C(=S)N[C@H]([C@@H](O)[C@H](O)[C@H](O)CO)[C@H]3O)C(OC(C)=O)C(OC(C)=O)C2OC(C)=O)C(OC(C)=O)C(OC(C)=O)C1OC(C)=O (stereo not given in full)
TGI (HCT-116 colon): > 100 µM
TGI (786-0 renal): > 100 µM
TGI (MOLT-4 leukemia): > 100 µM
TGI (CAKI-1 renal): > 100 µM
TGI (DU-145 prostate): > 100 µM

CC(=O)O[C@H]1CC[C@@]2(C)C(=CC[C@@H]3[C@@H]2CC[C@]2(C)c4nc(N)c(C#N)cc4C[C@@H]32)C1
TGI (HCT-116 colon): > 100 µM
TGI (786-0 renal): > 96 µM
TGI (NCI-H226 lung): > 100 µM
TGI (MOLT-4 leukemia): > 100 µM
TGI (CAKI-1 renal): > 100 µM
TGI (DU-145 prostate): > 100 µM

COc1ccc(N2CCN(c3ccc4c(c3)NCC(=O)N4)CC2)cc1
TGI (HCT-116 colon): > 100 µM
TGI (786-0 renal): > 100 µM
TGI (NCI-H226 lung): > 100 µM
TGI (MOLT-4 leukemia): > 100 µM
TGI (CAKI-1 renal): > 100 µM
TGI (DU-145 prostate): > 100 µM

Brc1cccc(C2(CCCC3(c4cccc(Br)n4)OCCO3)OCCO2)n1
TGI (HCT-116 colon): > 100 µM
TGI (786-0 renal): > 100 µM
TGI (NCI-H226 lung): > 100 µM
TGI (MOLT-4 leukemia): > 100 µM
TGI (CAKI-1 renal): > 100 µM

CCOC(OCC)C(CCc1ccccc1)c1c(N)nc(N)[nH]c1=O (stereo not given)
TGI (HCT-116 colon): > 100 µM
TGI (786-0 renal): > 100 µM
TGI (NCI-H226 lung): > 100 µM
TGI (MOLT-4 leukemia): > 100 µM
TGI (CAKI-1 renal): > 100 µM
TGI (DU-145 prostate): > 100 µM

CN(N)C(=O)NCCCl
TGI (HCT-116 colon): > 100 µM
TGI (786-0 renal): > 100 µM
TGI (NCI-H226 lung): 6.42 µM
TGI (MOLT-4 leukemia): > 100 µM
TGI (CAKI-1 renal): > 100 µM
TGI (DU-145 prostate): > 100 µM

O=C(c1ccc(Cl)cc1)N(Cc1cccnc1)C(=S)N(Cc1cccnc1)C(=O)c1ccc(Cl)cc1
TGI (HCT-116 colon): 80.3 µM
TGI (786-0 renal): 48.2 µM
TGI (NCI-H226 lung): > 100 µM
TGI (MOLT-4 leukemia): > 100 µM
TGI (CAKI-1 renal): > 100 µM
TGI (DU-145 prostate): > 100 µM

CC1=CC(=O)c2cccc(NC3=NCCO3)c21
TGI (HCT-116 colon): > 100 µM
TGI (786-0 renal): > 100 µM
TGI (NCI-H226 lung): 87.2 µM
TGI (MOLT-4 leukemia): > 100 µM
TGI (CAKI-1 renal): > 100 µM
TGI (DU-145 prostate): > 100 µM

CC(=O)NC1C(OCc2ccccc2)OC(CO)C(O)C1OCC(=O)NC(C)C(=O)NC(CCC(=O)NCCCCCC(=O)Nc1ccc2c(c1)CN1C(=O)c3ccccc3C1=N2)C(N)=O (stereo not given)
TGI (HCT-116 colon): > 100 µM
TGI (786-0 renal): > 100 µM
TGI (MOLT-4 leukemia): > 100 µM
TGI (CAKI-1 renal): > 100 µM
TGI (DU-145 prostate): > 100 µM

Cc1nnc(N)nc1/C=C\c1cccs1
TGI (HCT-116 colon): 35.5 µM
TGI (786-0 renal): 52.1 µM
TGI (NCI-H226 lung): 49.4 µM
TGI (MOLT-4 leukemia): > 100 µM
TGI (CAKI-1 renal): > 100 µM
TGI (DU-145 prostate): > 100 µM

[N-]=[N+]=C1CNC(=O)NC1=O
TGI (HCT-116 colon): > 100 µM
TGI (786-0 renal): > 100 µM
TGI (NCI-H226 lung): > 100 µM
TGI (MOLT-4 leukemia): > 100 µM
TGI (CAKI-1 renal): > 100 µM
TGI (DU-145 prostate): > 100 µM

Cc1ccccc1NC(=S)N=Nc1c(O)[nH]c2ccccc12
TGI (HCT-116 colon): > 100 µM
TGI (786-0 renal): > 100 µM
TGI (NCI-H226 lung): > 100 µM
TGI (MOLT-4 leukemia): > 100 µM
TGI (CAKI-1 renal): > 100 µM
TGI (DU-145 prostate): > 100 µM

N=C(N)n1[nH]c2c(c1=O)CCC2
TGI (HCT-116 colon): > 100 µM
TGI (786-0 renal): > 100 µM
TGI (NCI-H226 lung): > 100 µM
TGI (CAKI-1 renal): > 100 µM
TGI (DU-145 prostate): > 100 µM

ClCc1c(-c2ccccc2)nn(-c2ccccc2)c1CCl
TGI (HCT-116 colon): 25.1 µM
TGI (786-0 renal): 22 µM
TGI (NCI-H226 lung): 72.8 µM
TGI (CAKI-1 renal): 3.71 µM
TGI (DU-145 prostate): 29 µM

C=C(C)CC1=C(C(=S)NCCO[Si](C)(C)C(C)(C)C)C(OCC)(OCC)C1=O
TGI (HCT-116 colon): 50 µM
TGI (786-0 renal): 33.1 µM
TGI (MOLT-4 leukemia): > 100 µM
TGI (CAKI-1 renal): 31.9 µM
TGI (DU-145 prostate): 76.3 µM
